# Results: US5622839A (ZymoGenetics, Inc., priority 1995, dated 1997)
# Biological target: T1, human calcitonin receptor (Homo sapiens, UniProt P30988)
# T1 construct: Hollex encoded a protein of 474 amino acids; expressed in transfected cells; host or cells: BHK 570 / BHK/KZ10-20-48 (baby hamster kidney) stably transfected with pHollex
# T1 sequence (P30988 25-474): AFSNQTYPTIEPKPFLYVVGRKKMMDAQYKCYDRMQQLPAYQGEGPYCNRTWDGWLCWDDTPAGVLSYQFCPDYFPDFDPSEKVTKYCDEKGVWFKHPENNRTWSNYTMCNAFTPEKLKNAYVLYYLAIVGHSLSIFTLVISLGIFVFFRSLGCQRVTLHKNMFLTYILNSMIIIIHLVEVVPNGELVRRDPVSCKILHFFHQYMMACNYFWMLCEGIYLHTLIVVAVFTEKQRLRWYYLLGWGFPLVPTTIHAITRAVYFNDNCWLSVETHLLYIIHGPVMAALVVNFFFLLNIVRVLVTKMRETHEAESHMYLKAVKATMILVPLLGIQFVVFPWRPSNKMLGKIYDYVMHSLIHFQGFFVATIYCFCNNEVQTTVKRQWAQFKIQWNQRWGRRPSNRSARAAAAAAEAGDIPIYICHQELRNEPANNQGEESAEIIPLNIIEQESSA
# Assay: [Ca2+]i response of BHK cells expressing cloned calcitonin receptor to calcitonin and extracellular calcium (fura-2)
# Type: cell-based
# Conditions: about 700,000 calcitonin receptors/cell
# Method: BHK cells expressing the cloned calcitonin receptor were assayed to determine their response to extracellular calcium. Cells were washed three times with a buffer (140 mM NaCl, 5 mM KCl, 0.5 mM MgCl2, 0.5 mM CaCl2 (concentration varied in some experiments), 10 mM glucose, 10 mM HEPES, pH 7.4) made using high purity salts (Aldrich, Milwaukee, Wis.) and sterile water (Baxter, McGaw Park, Ill.). Cells were loaded with fura-2 AM (Molecular Probes Inc.) (10 μg/ml) for 30 minutes essentially as described above, then washed an additional three times. Slides were mounted at room temperature on an inverted microscope (EPIPHOT, Nikon), and a field of cells (typically 20-30 cells) was located using a 40× Nikon fluor objective. The ratio of fura-2 emission at excitation wavelengths of 340 and 380 nm was recorded every 5 seconds. Individual cells were analyzed on a computer workstation (Sun Microsystems) using a software system designed for ratio imaging (Inovision). The concentration of calcium chloride in buffers was determined by comparison to calcium standards on a calcium analyzer (Nova Biomedical Corp. Waltham, Mass.). All experiments were reproduced three to eight times. Fura-2 ratio 340 nm to 380 nm values (R) were converted to [Ca^2+ ]i concentrations after calibration of the instrument using the formula: calcium (nm)=2240[R-0.3)/(20-R)]. Basal [Ca^2+ ]i concentrations were typically 80-150 nm. The peak fura-2 ratios 340/380 of individual cells exposed to 20 nm salmon calcitonin followed by 25 mM calcium chloride were averaged for some experiments and converted to [Ca^2+ ]i concentrations. Standard error was calculated at a 99% level using a Z score of 2.58 (n>30).
substance,measurement,value
salmon calcitonin,concentration giving maximal transient [Ca2+]i increases,10-20 nm
